Experimental data published in PMC8211987, “Primaquine Diphosphate, a Known Antimalarial Drug, Blocks Vascular Leakage Acting Through Junction Stabilization” (Frontiers in Pharmacology, 2021).

Target: T1, ubiquitin specific protease 1 (USP1) (Homo sapiens, UniProt O94782)
T1 construct: recombinant USP1/UAF1 complex; with UAF1
Test: Ub-AMC deubiquitinase activity assay with purified recombinant USP1/UAF1
Assay type: biochemical

T1 sequence (O94782 whole entry): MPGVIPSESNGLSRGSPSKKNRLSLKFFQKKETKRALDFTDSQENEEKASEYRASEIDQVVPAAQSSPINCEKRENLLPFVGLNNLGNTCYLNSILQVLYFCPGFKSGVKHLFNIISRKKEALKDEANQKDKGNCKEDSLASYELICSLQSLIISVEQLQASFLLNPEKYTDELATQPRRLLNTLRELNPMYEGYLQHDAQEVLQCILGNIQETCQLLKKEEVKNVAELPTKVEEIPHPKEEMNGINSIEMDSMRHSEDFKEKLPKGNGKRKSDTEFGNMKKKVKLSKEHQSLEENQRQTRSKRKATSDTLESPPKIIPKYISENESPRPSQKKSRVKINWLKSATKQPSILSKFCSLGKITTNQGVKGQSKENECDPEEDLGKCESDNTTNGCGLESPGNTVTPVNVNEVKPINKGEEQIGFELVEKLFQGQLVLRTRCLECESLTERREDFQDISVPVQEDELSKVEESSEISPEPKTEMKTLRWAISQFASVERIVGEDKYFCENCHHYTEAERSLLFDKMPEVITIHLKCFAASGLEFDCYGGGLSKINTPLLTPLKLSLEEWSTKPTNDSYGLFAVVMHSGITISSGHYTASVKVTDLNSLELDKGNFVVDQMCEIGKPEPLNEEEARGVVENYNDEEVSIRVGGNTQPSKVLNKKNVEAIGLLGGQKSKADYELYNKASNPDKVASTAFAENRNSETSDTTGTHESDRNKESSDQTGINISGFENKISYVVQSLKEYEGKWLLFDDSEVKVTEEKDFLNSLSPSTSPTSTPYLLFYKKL
T1 sequence (Q8TAF3 whole entry partner): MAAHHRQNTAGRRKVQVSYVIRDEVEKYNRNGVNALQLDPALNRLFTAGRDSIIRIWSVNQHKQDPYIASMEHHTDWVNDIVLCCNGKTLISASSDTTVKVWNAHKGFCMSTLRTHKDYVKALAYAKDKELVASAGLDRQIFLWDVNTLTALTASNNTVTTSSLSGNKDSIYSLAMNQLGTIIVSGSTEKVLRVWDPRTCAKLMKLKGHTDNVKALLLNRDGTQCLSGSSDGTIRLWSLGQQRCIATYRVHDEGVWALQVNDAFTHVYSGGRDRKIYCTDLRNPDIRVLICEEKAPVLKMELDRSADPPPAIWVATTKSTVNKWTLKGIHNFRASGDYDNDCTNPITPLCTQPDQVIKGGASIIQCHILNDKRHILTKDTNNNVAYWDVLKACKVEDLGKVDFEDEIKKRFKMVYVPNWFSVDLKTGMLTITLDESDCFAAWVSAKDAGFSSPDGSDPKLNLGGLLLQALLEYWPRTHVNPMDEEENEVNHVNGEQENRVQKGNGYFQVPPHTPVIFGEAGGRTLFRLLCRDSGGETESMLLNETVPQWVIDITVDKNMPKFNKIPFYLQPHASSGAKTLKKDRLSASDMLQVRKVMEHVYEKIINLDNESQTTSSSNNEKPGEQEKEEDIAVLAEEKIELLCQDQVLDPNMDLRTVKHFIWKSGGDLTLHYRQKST

COc1cc(NC(C)CCCN)c2ncccc2c1 (stereo not shown) [PD, Primaquine diphosphate]
IC50: 25.4 µM
